Measured values reported in the supplement of paper PMC10307832.

Tests used:
Assay in all cases: relative viability (nuclei count vs DMSO), 5 days (fraction); higher = more cells survive
[1] = tested on: H3255
Procedure, shortened: (§1)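 Lung cancer cell lines in 1536-well plates were dosed by pin tool the day after seeding, either with one drug alone or with a fixed anchor-drug dose plus five library-drug doses (not always all listed) in √10 steps. After 5 days, cells were fixed and their nuclei stained in one step (final 0.05% Triton X-100, 1% formaldehyde, 1 ug/ml Hoechst), then counted on 4× images. Relative viability is the nuclei count in treated wells divided by that in vehicle wells. Values are medians of duplicate plates.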

[2] = tested on: NCI-H2087
Procedure, shortened: as §1

[3] = tested on: ChaGo-K-1
Procedure, shortened: as §1

[4] = tested on: NCI-H650
Procedure, shortened: as §1

[5] = tested on: LCLC-97TM1
Procedure, shortened: as §1

[6] = tested on: LCLC-103H
Procedure, shortened: as §1

[7] = tested on: EPLC-272H
Procedure, shortened: as §1

[8] = tested on: NCI-H520
Procedure, shortened: as §1

[9] = tested on: NCI-H2085
Procedure, shortened: as §1

[10] = tested on: UMC-11
Procedure, shortened: as §1

[11] = tested on: HCC-44
Procedure, shortened: as §1

[12] = tested on: NCI-H1395
Procedure, shortened: as §1

[13] = tested on: NCI-H1944
Procedure, shortened: as §1

[14] = tested on: NCI-H2405
Procedure, shortened: as §1

[15] = tested on: NCI-H1651
Procedure, shortened: as §1

[16] = tested on: EMC-BAC-2
Procedure, shortened: as §1

[17] = tested on: NCI-H1793
Procedure, shortened: as §1

[18] = tested on: NCI-H1355
Procedure, shortened: as §1

[19] = tested on: NCI-H322M
Procedure, shortened: as §1

[20] = tested on: SK-MES-1
Procedure, shortened: as §1

[21] = tested on: HCC-827
Procedure, shortened: as §1

[22] = tested on: NCI-H1993
Procedure, shortened: as §1

[23] = tested on: NCI-H23
Procedure, shortened: as §1

COc1cc(N2CCC(C(N)=O)CC2)ccc1Nc1nc(N)c(Cl)c(Nc2ccccc2S(=O)(=O)C(C)C)n1 [HG-5-88-01] + CC(=O)Nc1cccc(-n2c(=O)n(C3CC3)c(=O)c3c(Nc4ccc(I)cc4F)n(C)c(=O)c(C)c32)c1 [Trametinib] (partner 0.02 µM)
relative viability ([1]; first compound 0.04 µM): 0.563
relative viability ([1]; first compound 0.1265 µM): 0.697
relative viability ([1]; first compound 0.4 µM): 0.619
relative viability ([1]; first compound 4 µM): 0.539
relative viability ([2]; first compound 0.04 µM): 0.238
relative viability ([2]; first compound 0.1265 µM): 0.218
relative viability ([2]; first compound 0.4 µM): 0.194
relative viability ([2]; first compound 1.265 µM): 0.15
relative viability ([2]; first compound 4 µM): 0.164
relative viability ([3]; first compound 0.04 µM): 0.868
relative viability ([3]; first compound 0.1265 µM): 0.908
relative viability ([3]; first compound 0.4 µM): 0.843
relative viability ([3]; first compound 1.265 µM): 0.925
relative viability ([3]; first compound 4 µM): 0.875
relative viability ([4]; first compound 0.04 µM): 1.09
relative viability ([4]; first compound 0.1265 µM): 1.11
relative viability ([4]; first compound 0.4 µM): 0.987
relative viability ([4]; first compound 1.265 µM): 0.696
relative viability ([4]; first compound 4 µM): 0.786
relative viability ([5]; first compound 0.04 µM): 0.154
relative viability ([5]; first compound 0.1265 µM): 0.211
relative viability ([5]; first compound 0.4 µM): 0.188
relative viability ([5]; first compound 1.265 µM): 0.147
relative viability ([5]; first compound 4 µM): 0.136
relative viability ([6]; first compound 0.04 µM): 0.693
relative viability ([6]; first compound 0.1265 µM): 0.649
relative viability ([6]; first compound 0.4 µM): 0.52
relative viability ([6]; first compound 1.265 µM): 0.69
relative viability ([6]; first compound 4 µM): 0.732
relative viability ([7]; first compound 0.04 µM): 0.316
relative viability ([7]; first compound 0.1265 µM): 0.308
relative viability ([7]; first compound 0.4 µM): 0.279
relative viability ([7]; first compound 1.265 µM): 0.205
relative viability ([7]; first compound 4 µM): 0.0984
relative viability ([8]; first compound 0.04 µM): 0.568
relative viability ([8]; first compound 0.1265 µM): 0.831
relative viability ([8]; first compound 0.4 µM): 0.617
relative viability ([8]; first compound 1.265 µM): 0.74
relative viability ([8]; first compound 4 µM): 0.634
relative viability ([9]; first compound 0.04 µM): 0.613
relative viability ([9]; first compound 0.1265 µM): 0.553
relative viability ([9]; first compound 0.4 µM): 0.502
relative viability ([9]; first compound 1.265 µM): 0.478
relative viability ([9]; first compound 4 µM): 0.432
relative viability ([10]; first compound 0.04 µM): 0.532
relative viability ([10]; first compound 0.1265 µM): 0.861
relative viability ([10]; first compound 0.4 µM): 0.727
relative viability ([10]; first compound 1.265 µM): 0.707
relative viability ([10]; first compound 4 µM): 0.531
relative viability ([11]; first compound 0.04 µM): 1.04
relative viability ([11]; first compound 0.1265 µM): 1.03
relative viability ([11]; first compound 0.4 µM): 1.1
relative viability ([11]; first compound 1.265 µM): 1.07
relative viability ([11]; first compound 4 µM): 1.01
relative viability ([12]; first compound 0.04 µM): 1
relative viability ([12]; first compound 0.1265 µM): 1.21
relative viability ([12]; first compound 0.4 µM): 1.08
relative viability ([12]; first compound 1.265 µM): 0.773
relative viability ([12]; first compound 4 µM): 1.13
relative viability ([13]; first compound 0.04 µM): 0.386
relative viability ([13]; first compound 0.1265 µM): 0.48
relative viability ([13]; first compound 0.4 µM): 0.396
relative viability ([13]; first compound 1.265 µM): 0.398
relative viability ([13]; first compound 4 µM): 0.398
relative viability ([14]; first compound 0.04 µM): 0.676
relative viability ([14]; first compound 0.1265 µM): 0.706
relative viability ([14]; first compound 0.4 µM): 0.529
relative viability ([14]; first compound 1.265 µM): 0.455
relative viability ([14]; first compound 4 µM): 0.545
relative viability ([15]; first compound 0.04 µM): 0.918
relative viability ([15]; first compound 0.1265 µM): 0.862
relative viability ([15]; first compound 0.4 µM): 0.799
relative viability ([15]; first compound 1.265 µM): 0.744
relative viability ([15]; first compound 4 µM): 0.957
relative viability ([16]; first compound 0.04 µM): 0.927
relative viability ([16]; first compound 0.1265 µM): 0.939
relative viability ([16]; first compound 0.4 µM): 0.8
relative viability ([16]; first compound 1.265 µM): 0.564
relative viability ([16]; first compound 4 µM): 0.632
relative viability ([17]; first compound 0.04 µM): 0.433
relative viability ([17]; first compound 0.1265 µM): 0.381
relative viability ([17]; first compound 0.4 µM): 0.462
relative viability ([17]; first compound 1.265 µM): 0.432
relative viability ([17]; first compound 4 µM): 0.578
relative viability ([18]; first compound 0.04 µM): 0.439
relative viability ([18]; first compound 0.1265 µM): 0.351
relative viability ([18]; first compound 0.4 µM): 0.407
relative viability ([18]; first compound 1.265 µM): 0.298
relative viability ([18]; first compound 4 µM): 0.323
relative viability ([19]; first compound 0.04 µM): 0.486
relative viability ([19]; first compound 0.1265 µM): 0.459
relative viability ([19]; first compound 0.4 µM): 0.524
relative viability ([19]; first compound 1.265 µM): 0.36
relative viability ([19]; first compound 4 µM): 0.451
relative viability ([20]; first compound 0.04 µM): 0.535
relative viability ([20]; first compound 0.1265 µM): 0.54
relative viability ([20]; first compound 0.4 µM): 0.503
relative viability ([20]; first compound 1.265 µM): 0.498
relative viability ([20]; first compound 4 µM): 0.619
relative viability ([21]; first compound 0.04 µM): 0.529
relative viability ([21]; first compound 0.1265 µM): 0.463
relative viability ([21]; first compound 0.4 µM): 0.538
relative viability ([21]; first compound 1.265 µM): 0.18
relative viability ([21]; first compound 4 µM): 0.269
relative viability ([22]; first compound 0.04 µM): 0.413
relative viability ([22]; first compound 0.1265 µM): 0.458
relative viability ([22]; first compound 0.4 µM): 0.447
relative viability ([22]; first compound 4 µM): 0.45
relative viability ([23]; first compound 0.04 µM): 0.383
relative viability ([23]; first compound 0.1265 µM): 0.336
relative viability ([23]; first compound 0.4 µM): 0.366
relative viability ([23]; first compound 1.265 µM): 0.28
relative viability ([23]; first compound 4 µM): 0.247
